Reference: ChEMBL document CHEMBL3739292, “Synthesis and Biological Evaluation of Polar Functionalities Containing Nitrodihydroimidazooxazoles as Anti-TB Agents” (ACS Med Chem Lett, 2015)
≈ marks a conversion by molar mass, not a printed value.

Tests used:
[1] = system: Mycobacterium tuberculosis; test: Antimicrobial activity against multidrug-resistant Mycobacterium tuberculosis by resazurin microtiter assay; assay type: functional
[2] = system: Mycobacterium tuberculosis; test: Antimicrobial activity against rifamycin-resistant Mycobacterium tuberculosis by resazurin microtiter assay; assay type: functional

| Structure (SMILES) | MIC [1] [µg/mL] | MIC [2] [µg/mL] |
| --- | --- | --- |
| C[C@]1(COc2ccc(N3CCC(Oc4ccc(OC(F)(F)F)cc4)CC3)cc2)Cn2cc([N+](=O)[O-])nc2O1 | 0.02 (≈ 0.0374 µM) | 0.005 (≈ 0.00935 µM) |
| CCOc1ccc(NC(=O)Nc2ccc(OC[C@@]3(C)Cn4cc([N+](=O)[O-])nc4O3)cc2)cc1 | > 8 | 1 (≈ 2.21 µM) |
| C[C@]1(COc2ccc(NC(=O)Nc3ccc(Cl)cc3)cc2)Cn2cc([N+](=O)[O-])nc2O1 | > 8 | 0.67 (≈ 1.51 µM) |
| COc1ccc(NC(=S)Nc2ccc(OC[C@@]3(C)Cn4cc([N+](=O)[O-])nc4O3)cc2)cc1 | > 8 | 2 (≈ 4.39 µM) |
| C[C@]1(COc2ccc(S(=O)(=O)N3CCOCC3)cc2)Cn2cc([N+](=O)[O-])nc2O1 | 2 (≈ 4.71 µM) | 1 (≈ 2.36 µM) |
| C[C@]1(COc2ccc(N3CCN(S(=O)(=O)c4ccc(F)cc4)CC3)cc2)Cn2cc([N+](=O)[O-])nc2O1 | > 8 | 1 (≈ 1.93 µM) |
| C[C@]1(COc2ccc(-n3cc(COc4ccc(OC(F)(F)F)cc4)nn3)cc2)Cn2cc([N+](=O)[O-])nc2O1 | 0.12 (≈ 0.225 µM) | 0.06 (≈ 0.113 µM) |
| C[C@]1(COc2ccc(S(=O)(=O)N3CCCCC3)cc2)Cn2cc([N+](=O)[O-])nc2O1 | > 8 | 3.34 (≈ 7.91 µM) |
| COc1c(N2CCNC(C)C2)c(F)cc2c(=O)c(C(=O)O)cn(C3CC3)c12 (centres undefined) [GATIFLOXACIN] | 0.5 (≈ 1.33 µM) |  |
| CO[C@H]1/C=C/O[C@@]2(C)Oc3c(C)c(O)c4c(O)c(c(/C=N/N5CCN(C)CC5)c(O)c4c3C2=O)NC(=O)/C(C)=C\C=C\[C@H](C)[C@H](O)[C@@H](C)[C@@H](O)[C@@H](C)[C@H](OC(C)=O)[C@@H]1C [RIFAMPIN] | 128 (≈ 156 µM) | 256 (≈ 311 µM) |
